Assay results published in US20240125768A1, “METHODS FOR MODULATING A SRC-1 CONDENSATE” (ETERN BIOPHARMA (SHANGHAI) CO., LTD., priority 2021, published 2024).

Assays:
SRC-1 phase separation = target: T1, SRC-1 phase separation (Homo sapiens, UniProt Q15788); assay: High content image of mScarlet-SRC-1 puncta in H1299 cells; assay type: cell-based; settings: 20 μM
T1 construct: expressed in transfected cells; host or cells: H1299
Experimental: FIG. 7Q illustrates quantification result of high content image data for mScarlet-SRC-1 puncta in H1299 cells treated w/o 20 μM EVG. ***p<0.001.
Eight hours after transfection, H1299 cells expressing mScarlet-SRC-1 were seeded in 24-well glass bottom plate (Cellvis P24-1.5H-N) and EVG was added two hours later. Images were obtained with the Operetta CLSTM high-content cell imaging analysis system (PerkinElmer Inc., Waltham, MA, USA). The 63× objective lens was applied in each condition. Data was analyzed by images collected from over 100 representative fields in each group. The spots quantification was performed based on the area and intensity of the spots through mScarlet channel. GraphPad Prism is used to plot and analyze the high content image results.

YAP = assay: Western blotting / YAP phostag immunoblotting in SF268 cells; assay type: cell-based, human; settings: 20 μM
Experimental: FIG. 7F illustrates SF268 cells were treated with 20 μM elvitegravir (EVG) or […] (PC) for the indicated times and subjected to western blotting analysis.
FIG. 7G illustrates SF268 cells treated with EVG or PC (fedratinib—an inhibitor of the non-receptor tyrosine kinase JAK2 which affects YAP nuclear translocation and phosphorylation) were examined by YAP phostag immunoblotting.

[1] = system: RNA polymerase II phosphorylated at Ser 5 (CTD); assay: Immunofluorescence of RNA pol II-S5P at TEAD puncta in H1299 cells; assay type: cell-based; settings: H1299 cells co-expressing YAP5SA, TEAD4-mTagBFP, mNeoGreen-SRC1; 20 μM
Experimental: (§1) FIG. 7 M illustrates immunofluorescence staining with anti-H3K27ac (red,top) and anti-RNA pol II-S5P (red, bottom) in H1299 cells co-expressing YAP5SA, TEAD4-mTagBFP(blue) and mNeoGreen-SRC1(green) treated with 20 μM EVG. EVG impaired the SRC-1 LLPS. Transcription active markerH3K27ac and active RNA polymerase II phosphorylated at Ser 5 of CTD were not enriched in SRC-1 condensates. Scale bar, 5 μm.
(§2) Cells were fixed with 4% PFA for 15 minutes at room temperature. Cells were subsequently washed with PBS (3×3 min) and blocked in PBS/BSA (3%)/Triton X-100 (0.3%) at room temperature for 60 minutes. Cells were rinsed in PBS and incubated with anti-H3K27ac (ab4729, Abcam, 1:100), anti-RNA Pol II-S5P antibody (#04-1572, Millipore, 1:200) in PBS/BSA (1%) overnight at 4° C. Cells were washed with PBST (1×PBS+Tween20 0.2%, 3×5 min) and incubated with the secondary antibody for 1 hours at room temperature. After washing with PBST(3×5 min), cells were stained with DAPI.

SRC-1 [2] = assay: Biolayer interferometry (BLI); assay type: binding; settings: biotin labeled EVG on streptavidin biosensors, purified SRC-1 protein
Experimental: FIG. 7R illustrates bio-layer interferometry (BLI) assays were performed with purified SRC-1 protein and EVG. Biotin labeled EVG was immobilized on the streptavidin biosensors and dipped into wells containing increasing concentrations of SRC-1 protein.
The binding between EVG and SRC1 was examined using BLI Octet RED96 (ForteEio Inc., Menlo Park, CA). Streptavidin biosensors (ForteBio Inc.) were pre-soaked (30 min) in assay buffer (20 mM TrisHCl pH8.0, 150 mM NaCl and 1% DMSO), then coated in an assay buffer containing 100 uM EVG-biotin for 7 min. As a control, sensors were incubated in an assay buffer containing 100 uM Biocytin, followed by a 6 min wash with assay buffer containing 1% BSA and 0.1% Tween20. Indicated concentrations of truncated SRC1protein ([…], 0 μg/ml) were diluted in assay buffer containing 1% BSA/0.1% Tween20 and flowed through biosensors coated with Bio-EVG or biocytin for 5 min. A 5 min dissociation was followed. Data was analyzed using OctetRED analysis software.

SRC-1 [3] = assay: Biotin-EVG competition pulldown and thermal shift assays; assay type: binding; settings: Flag-SRC-1, biotin-EVG, increasing concentrations of EVG
Experimental: FIG. 7T illustrates the lysates from SF268 cells overexpressing Flag-SRC-1 were incubated with 20 μM biotin or biotin-EVG for streptavidin-beads pull-down assays.
FIG. 7U illustrates purified Flag-SRC1 protein was incubated with EVG-Biotin in the presence of increasing concentrations of EVG and further subjected to streptavidin-beads pull-down assays.
1 μg of purified recombinant protein Flag-SRC-1 was incubated with […] biotin-EVG/DMSO in the presence of increasing concentrations of Elvitegravir (20, 40, 100, 200 uM) for 30 min (RT) and was further incubated with streptavidin-agarose (20359, Thermo Fisher Scientific) for 20 min (RT). Washing beads with PBS (3×1.5 min). The precipitates were analyzed by western blot with anti-flag antibody.
Methods: Cells (SF268 cells and HEK293FT cells were transfected with expression vector of Flag-SRC-1) were harvested and lysed in lysis buffer (20 mM TrisHCl 7.5, 150 mM NaCl, 0.5% NP40, 5% glycerin, 1% proteinase Cocktail), and then incubated with 20 µM compound with biotin tag or DMSO for 40 min at room temperature. Then incubated with 100 μL streptavidin-agarose (20359, Thermo Fisher Scientific) for 30 min at RT. The beads were washed 4 times with lysis buffer ([…] 1.5 min). And the precipitates were analyzed by western blot with anti-flag antibody. […]

H3K27ac = assay: Immunofluorescence of H3K27ac at TEAD puncta in H1299 cells; assay type: cell-based; settings: H1299 cells co-expressing YAP5SA, TEAD4-mTagBFP, mNeoGreen-SRC1; 20 μM
Experimental: as §1, §2

[4] = system: SRC-1's binding with YAP and TEAD; assay: FLAG pulldown assay with recombinant proteins; settings: in vitro pulldown, concentrations up to 400 μM
Experimental: FIG. 7N illustrates purified Flag-SRC-1 protein was mixed with YAP and/or TEAD4 in the presence of increasing concentrations of EVG and was subjected to three independent pull-downs using anti-flag beads.
Three independent pull down assays were performed to detect the direct binding between SRC1 and YAP/TEAD4. Purified FLAG-SRC1 truncated proteins were incubated with YAP, TEAD4 and YAP plus TEAD4 respectively, and further subjected to pull down assays by ANTI-FLAG® M2 Affinity Gel (A2220, Sigma-Aldrich). Elvitegravir was co-incubated with the mixtures at increasing concentrations (0, 50, 200, 400 μM) as indicated. Complexes were washed in PBS buffer and proteins were eluted using 2×SDS loading buffer.

T1 sequence (Q15788 whole entry): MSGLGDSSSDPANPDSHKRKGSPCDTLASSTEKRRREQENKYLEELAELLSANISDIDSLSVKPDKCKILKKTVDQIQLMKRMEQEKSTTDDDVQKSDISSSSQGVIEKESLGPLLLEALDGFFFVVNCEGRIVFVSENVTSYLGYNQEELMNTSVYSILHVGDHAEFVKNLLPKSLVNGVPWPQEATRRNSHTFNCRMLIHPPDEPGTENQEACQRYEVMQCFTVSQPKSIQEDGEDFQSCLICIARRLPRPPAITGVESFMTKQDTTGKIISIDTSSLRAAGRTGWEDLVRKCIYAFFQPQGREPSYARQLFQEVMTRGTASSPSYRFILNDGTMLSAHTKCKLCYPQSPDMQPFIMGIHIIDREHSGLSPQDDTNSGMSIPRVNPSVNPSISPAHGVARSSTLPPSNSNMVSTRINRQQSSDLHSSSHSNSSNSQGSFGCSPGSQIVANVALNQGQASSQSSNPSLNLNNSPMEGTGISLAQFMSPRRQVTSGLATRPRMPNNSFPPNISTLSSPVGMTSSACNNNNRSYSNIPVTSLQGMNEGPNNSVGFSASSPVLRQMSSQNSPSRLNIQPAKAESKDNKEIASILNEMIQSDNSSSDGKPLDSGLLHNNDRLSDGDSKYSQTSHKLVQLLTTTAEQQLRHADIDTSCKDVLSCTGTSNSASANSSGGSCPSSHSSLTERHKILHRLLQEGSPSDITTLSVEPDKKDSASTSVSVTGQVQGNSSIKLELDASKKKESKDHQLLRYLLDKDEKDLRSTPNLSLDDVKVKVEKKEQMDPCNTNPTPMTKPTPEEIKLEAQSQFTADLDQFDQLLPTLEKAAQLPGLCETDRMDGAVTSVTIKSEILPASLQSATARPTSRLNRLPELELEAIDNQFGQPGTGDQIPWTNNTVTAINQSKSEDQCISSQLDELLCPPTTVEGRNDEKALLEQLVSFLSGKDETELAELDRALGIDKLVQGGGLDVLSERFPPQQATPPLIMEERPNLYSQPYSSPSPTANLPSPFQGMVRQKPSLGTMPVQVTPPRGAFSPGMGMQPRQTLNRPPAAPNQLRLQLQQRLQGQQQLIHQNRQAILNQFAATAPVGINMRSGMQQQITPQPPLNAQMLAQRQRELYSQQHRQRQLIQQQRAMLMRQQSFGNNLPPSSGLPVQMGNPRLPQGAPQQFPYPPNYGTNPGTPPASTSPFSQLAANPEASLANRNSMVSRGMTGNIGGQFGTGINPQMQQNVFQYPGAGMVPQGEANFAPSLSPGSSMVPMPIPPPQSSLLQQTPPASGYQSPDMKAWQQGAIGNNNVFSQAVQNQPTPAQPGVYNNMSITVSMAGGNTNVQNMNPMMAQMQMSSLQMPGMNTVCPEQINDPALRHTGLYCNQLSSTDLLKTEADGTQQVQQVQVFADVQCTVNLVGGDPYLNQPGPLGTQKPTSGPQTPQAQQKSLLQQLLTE

SRC-1 phase separation, high content image (mScarlet-SRC-1 puncta) (SRC-1 phase separation): inhibitory effects
binding to SRC-1 (BLI) (SRC-1 [2]): directly binds
binding to SRC-1, competition pulldown and thermal shift (SRC-1 [3]): both direct and specific
SRC-1's binding with YAP and TEAD [4]: did not affect
SMILES: COc1cc2c(cc1Cc1cccc(Cl)c1F)c(=O)c(C(=O)O)cn2[C@H](CO)C(C)C [EVG, 6-[(3-chloro-2-fluorophenyl)methyl]-1-[(2S)-1-hydroxy-3-methylbutan-2-yl]-7-methoxy-4-oxoquinoline-3-carboxylic acid]
phosphorylation pattern in YAP (YAP): unaffected
RNA polymerase II phosphorylated at Ser 5 (CTD) at TEAD puncta [1]: no effect
enrichment of H3K27ac at TEAD puncta (H3K27ac): inhibited the enrichment
